pIC50, pKi: −log10 of the molar value.
Columns and labels:
Mus musculus [1] = assay: Ex-vivo inhibition of PrCP in heat inactivated 100% plasma of po dosed C57 mouse assessed as target engagement after 20 hrs by FRET analysis; format: functional; parameters: scale not given: the % may be the effect or the level left
Mus musculus [2] = assay: Ex-vivo inhibition of po dosed mouse PrCP by FRET analysis in presence of heat inactivated 25% plasma; format: functional, organism-based
Mus musculus [3] = assay: Ex-vivo inhibition of PrCP in heat inactivated 100% plasma of C57 mouse assessed as target engagement at 30 mg/kg, po after 20 hrs by FRET analysis; format: functional; parameters: scale not given: the % may be the effect or the level left
[4] = Drug uptake in C57 mouse brain at 3 mg/kg, po after 20 hrs by LC/MS analysis; format: ADME, organism-based; parameters: dose 3 mg/kg, route oral; details: read-out: Drug uptake
[5] = Stability in mouse liver microsomes after 30 mins by LC/MS analysis; format: ADME, Microsome; details: read-out: Stability
Mus musculus [6] = assay: Ex-vivo inhibition of PrCP in heat inactivated 100% plasma of C57 mouse assessed as target engagement at 10 mg/kg, po after 20 hrs by FRET analysis; format: functional; parameters: scale not given: the % may be the effect or the level left
[7] = Ratio of drug uptake in brain to plasma of C57 mouse at 10 mg/kg, po after 20 hrs by LC/MS analysis; format: ADME, organism-based; parameters: dose 10 mg/kg, route oral; details: read-out: BPR
Mus musculus [8] = assay: Ex-vivo inhibition of PrCP in heat inactivated 100% plasma of C57 mouse assessed as target engagement calculated as [cmpd]plasma/([cmpd]plasma + Ki (heat inactivated plasma))x100 at 3 mg/kg, po after 20 hrs by FRET analysis; format: functional; parameters: scale not given: the % may be the effect or the level left
[9] = Stability in human liver microsomes after 30 mins by LC/MS analysis; format: ADME, Microsome; details: read-out: Stability
[10] = Ratio of drug uptake in brain to plasma of C57 mouse at 3 mg/kg, po after 20 hrs by LC/MS analysis; format: ADME, organism-based; parameters: dose 3 mg/kg, route oral; details: read-out: BPR
Mus musculus [11] = assay: Ex-vivo inhibition of po dosed mouse PrCP by FRET analysis in presence of heat inactivated 100% plasma; format: functional, organism-based
[12] = biological target: T1, Lysosomal Pro-X carboxypeptidase (Mus musculus, UniProt Q7TMR0); assay: Inhibition of mouse PrCP
T1 sequence (Q7TMR0 whole entry): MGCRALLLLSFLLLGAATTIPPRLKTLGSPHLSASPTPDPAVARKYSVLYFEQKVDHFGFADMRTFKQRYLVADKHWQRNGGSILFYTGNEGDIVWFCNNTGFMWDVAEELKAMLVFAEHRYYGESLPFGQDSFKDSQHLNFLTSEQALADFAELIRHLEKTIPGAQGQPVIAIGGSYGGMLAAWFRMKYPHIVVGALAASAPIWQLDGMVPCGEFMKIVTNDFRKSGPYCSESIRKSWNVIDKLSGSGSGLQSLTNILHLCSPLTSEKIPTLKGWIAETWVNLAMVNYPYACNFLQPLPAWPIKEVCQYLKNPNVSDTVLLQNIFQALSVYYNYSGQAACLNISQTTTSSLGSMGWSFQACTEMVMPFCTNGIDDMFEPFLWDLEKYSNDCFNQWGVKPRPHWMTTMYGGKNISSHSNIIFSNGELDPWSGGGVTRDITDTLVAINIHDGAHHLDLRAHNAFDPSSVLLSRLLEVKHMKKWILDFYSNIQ

[13] = Drug uptake in C57 mouse plasma at 10 mg/kg, po after 20 hrs by LC/MS analysis; format: ADME, organism-based; parameters: dose 10 mg/kg, route oral
[14] = Percentage unbound in 10% mouse plasma; format: ADME, cell-free
[15] = Drug uptake in C57 mouse plasma at 3 mg/kg, po after 20 hrs by LC/MS analysis; format: ADME, organism-based; parameters: dose 3 mg/kg, route oral
[16] = Drug uptake in C57 mouse brain at 10 mg/kg, po after 20 hrs by LC/MS analysis; format: ADME, organism-based; parameters: dose 10 mg/kg, route oral; details: read-out: Drug uptake
Mus musculus [17] = assay: Ex-vivo inhibition of PrCP in heat inactivated 100% plasma of C57 mouse assessed as target engagement at 3 mg/kg, po after 20 hrs by FRET analysis; format: functional; parameters: scale not given: the % may be the effect or the level left
Mus musculus [18] = assay: Ex-vivo inhibition of po dosed mouse PrCP by FRET analysis in absence of plasma; format: functional, organism-based
Mus musculus [19] = assay: Toxicity in po dosed C57 mouse; format: organism-based; details: in vivo
[20] = Ratio of drug uptake in brain to plasma of C57 mouse at 30 mg/kg, po after 20 hrs by LC/MS analysis; format: ADME, organism-based; parameters: dose 30 mg/kg, route oral; details: read-out: BPR
[21] = Apparent permeability across pig LLC-PK1 cells at 1 uM; format: ADME, cell-based, Sus scrofa
[22] = Drug uptake in C57 mouse plasma at 30 mg/kg, po after 20 hrs by LC/MS analysis; format: ADME, organism-based; parameters: dose 30 mg/kg, route oral
[23] = Percentage unbound in 10% human plasma; format: ADME, cell-free
Mus musculus [24] = assay: Ex-vivo inhibition of PrCP in heat inactivated 100% plasma of C57 mouse assessed as target engagement calculated as [cmpd]plasma/([cmpd]plasma + Ki (heat inactivated plasma))x100 at 30 mg/kg, po after 20 hrs by FRET analysis; format: functional; parameters: scale not given: the % may be the effect or the level left
[25] = Drug uptake in C57 mouse brain at 30 mg/kg, po after 20 hrs by LC/MS analysis; format: ADME, organism-based; parameters: dose 30 mg/kg, route oral; details: read-out: Drug uptake
Mus musculus [26] = assay: Ex-vivo inhibition of PrCP in heat inactivated 100% plasma of C57 mouse assessed as target engagement calculated as [cmpd]plasma/([cmpd]plasma + Ki (heat inactivated plasma))x100 at 10 mg/kg, po after 20 hrs by FRET analysis; format: functional; parameters: scale not given: the % may be the effect or the level left
[27] = Oral bioavailability in mouse at 30 mg/kg; format: ADME, organism-based; details: in vivo
[28] = Half life in mouse at 1 mg/kg, iv and 30 mg/kg, po; format: ADME, organism-based; details: in vivo
[29] = Clearance in mouse at 1 mg/kg, iv and 30 mg/kg, po; format: ADME, organism-based; details: in vivo
Mus musculus [30] = assay: Dose normalized AUC in mouse at 1 mg/kg, iv and 30 mg/kg, po; format: ADME, organism-based; details: in vivo
[31] = Volume of distribution in mouse at 1 mg/kg, iv and 30 mg/kg, po; format: ADME, organism-based; details: in vivo

In the case of C[C@@]1(N)C[C@H](C(=O)N2CCC(c3ccnn3-c3ccc(F)c(Cl)c3)CC2)[C@@H](c2ccc(F)cc2F)C1, the Activity (Mus musculus [1]) was 38%, the pKi (Mus musculus [2]) was 8.82 and the Activity (Mus musculus [3]) was “>=100%”. The concentration at 20 h [4] was 0.006 µM, the remaining at 0.5 h [5] was 73% and the Activity (Mus musculus [6]) was 72%. For the same compound, the Kp at 20 h [7] was 0.28, the Activity (Mus musculus [8]) was 84.2% and the remaining at 0.5 h [9] was 20%. The Kp at 20 h [10] was 0.18, the pKi (Mus musculus [11]) was 8.41 and the pIC50 [12] was 9.00. The concentration at 20 h [13] was 0.185 µM, the fraction unbound [14] was 0.035 and the concentration at 20 h [15] was 0.023 µM. For the same compound, the concentration at 20 h [16] was 0.051 µM, the Activity (Mus musculus [17]) was 31% and the pKi (Mus musculus [18]) was 9.15. The Activity (Mus musculus [19]) was “Non-toxic”, the Kp at 20 h [20] was 0.07 and the Papp at 1 µM [21] was 217 nm/s. The concentration at 20 h [22] was 2.13 µM, the fraction unbound [23] was 0.065 and the Activity (Mus musculus [24]) was 100%. The concentration at 20 h [25] was 0.142 µM and the Activity (Mus musculus [26]) was 100%.

For Cc1cc(C2CCN(C(=O)[C@@H]3C[C@@](C)(N)C[C@H]3c3ccc(F)cc3F)CC2)n(-c2ccc(F)c(Cl)c2)n1, the pKi (Mus musculus [2]) was 8.43, the Activity (Mus musculus [3]) was “>=100%” and the bioavailability [27] was 57%. The remaining at 0.5 h [5] was 90%, the Activity (Mus musculus [6]) was 62.8% and the Kp at 20 h [7] was 0.18. It also gave a remaining at 0.5 h [9] of 60%, a pKi (Mus musculus [11]) of 8.00 and a concentration at 20 h [13] of 0.246 µM. For the same compound, the fraction unbound [14] was 0.036, the concentration at 20 h [16] was 0.039 µM and the half-life [28] was 4.9 h. The clearance [29] was 1.08 L/h/kg, the AUC/dose (Mus musculus [30]) was 1 µM·kg·h/mg and the pKi (Mus musculus [18]) was 8.80. It also gave a Kp at 20 h [20] of 0.17, a Papp at 1 µM [21] of 240 nm/s and a Vd [31] of 6.2 L/kg. It also gave a concentration at 20 h [22] of 2.83 µM, a fraction unbound [23] of 0.043 and an Activity (Mus musculus [24]) of 99.6%. It also gave a concentration at 20 h [25] of 0.363 µM and an Activity (Mus musculus [26]) of 96.1%.

— ChEMBL document CHEMBL2029344, “A new class of prolylcarboxypeptidase inhibitors, part 2: the aminocyclopentanes” (Bioorg Med Chem Lett, 2012)
